Measured values as given in ChEMBL document CHEMBL1121661, “Synthesis and antitumor activity of a series of sulfone analogues of 1,4-naphthoquinone” (1981).

Legend:
Type in all cases: functional
Mus musculus [1] = assay: Effect on P-388 lymphocytic leukemia growth at a given dose 10 mg/kg per day ip expressed as average survival days of treated mice; details: route intraperitoneal
Mus musculus [2] = assay: Percent packed cell volume at 10 mg/kg per day per mouse; design: unit not given here
Mus musculus [3] = assay: Percent packed cell volume at 10 mg/kg per day
Mus musculus [4] = assay: Effect on P-388 lymphocytic leukemia growth at a given dose 10 mg/kg per day ip expressed as ratio of treated / control (T/C>125 is required for significant activity); details: route intraperitoneal
Mus musculus [5] = assay: Effect on Ehrlich ascites carcinoma growth in CF1 mice at 10 mg/kg per day ip survival at day 9; 8/8; details: route intraperitoneal
Mus musculus [6] = assay: Percent inhibition of Ehrlich ascites carcinoma growth at 10 mg/kg per day
Mus musculus [7] = assay: Effect on Ehrlich ascites carcinoma growth in CF1 mice at 10 mg/kg per day ip survival at day 9; 6/6; details: route intraperitoneal
Mus musculus [8] = assay: Effect of compound on P-388 lymphocytic leukemia growth at a given dose 15 mg/kg per day ip expressed as ratio of treated / control (T/C>125 is required for significant activity); details: route intraperitoneal
Mus musculus [9] = assay: Effect of compound on P-388 lymphocytic leukemia growth at a given dose 15 mg/kg per day ip expressed as average survival days of treated mice; details: route intraperitoneal
Mus musculus [10] = assay: Effect of compound on P-388 lymphocytic leukemia growth at a given dose 10 mg/kg per day ip expressed as ratio of treated / control; details: route intraperitoneal
Mus musculus [11] = assay: Effect of compound on Ehrlich ascites carcinoma growth in CF1 mice at 5 mg/kg per day ip survival at day 9; 5/6; details: route intraperitoneal
Mus musculus [12] = assay: Effect of compound on Ehrlich ascites carcinoma growth in CF1 mice at 10 mg/kg per day ip survival at day 9; 3/8; details: route intraperitoneal
Mus musculus [13] = assay: Percent inhibition of Ehrlich ascites carcinoma growth at 5 (mg/kg)/day
Mus musculus [14] = assay: Percent packed cell volume at 5 (mg/kg)/day per mouse
Mus musculus [15] = assay: Percent packed cell volume at 5 (mg/kg)/day
Mus musculus [16] = assay: Effect of compound on P-388 lymphocytic leukemia growth at a given dose 5 mg/kg per day ip expressed as average survival days of treated mice; details: route intraperitoneal
Mus musculus [17] = assay: Effect of compound on P-388 lymphocytic leukemia growth at a given dose 6.25 mg/kg per day ip expressed as ratio of treated / control (T/C>125 is required for significant activity); details: route intraperitoneal
Mus musculus [18] = assay: Effect of compound on P-388 lymphocytic leukemia growth at a given dose 4 mg/kg per day ip expressed as average survival days of treated mice; details: route intraperitoneal
Mus musculus [19] = assay: Effect of compound on P-388 lymphocytic leukemia growth at a given dose 25 mg/kg per day ip expressed as ratio of treated / control (T/C>125 is required for significant activity); details: route intraperitoneal
Mus musculus [20] = assay: Effect of compound on P-388 lymphocytic leukemia growth at a given dose 12.50 mg/kg per day ip expressed as ratio of treated / control (T/C>125 is required for significant activity); details: route intraperitoneal
Mus musculus [21] = assay: Effect of compound on P-388 lymphocytic leukemia growth at a given dose 2.5 mg/kg per day ip expressed as average survival days of treated mice; details: route intraperitoneal
Mus musculus [22] = assay: Effect of compound on P-388 lymphocytic leukemia growth at a given dose 5 mg/kg per day ip expressed as ratio of treated / control (T/C>125 is required for significant activity); details: route intraperitoneal
Mus musculus [23] = assay: Effect of compound on P-388 lymphocytic leukemia growth at a given dose 10 mg/kg per day ip expressed as ratio of treated / control (T/C>125 is required for significant activity); details: route intraperitoneal
Mus musculus [24] = assay: Effect of compound on P-388 lymphocytic leukemia growth at a given dose 15 mg/kg per dayip expressed as average survival days of treated mice
Mus musculus [25] = assay: Effect of compound on P-388 lymphocytic leukemia growth at a given dose 15 mg/kg per day ip expressed as ratio of treated / control; details: route intraperitoneal
Mus musculus [26] = assay: Effect of compound on Ehrlich ascites carcinoma growth in CF1 mice at a dose ((20 mg/kg)/day) ip survival at day 9 packed cell volume as a percent
Mus musculus [27] = assay: Effect of compound on Ehrlich ascites carcinoma growth in CF1 mice at a dose ((20 mg/kg)/day) ip survival at day 9 packed cell volume
Mus musculus [28] = assay: Effect of compound on Ehrlich ascites carcinoma growth in CF1 mice at 20 mg/kg per day ip survival at day 9; 8/8; details: route intraperitoneal
Mus musculus [29] = assay: Effect of compound on P-388 lymphocytic leukemia growth at a given dose 25 mg/kg per day ip expressed as average survival days of treated mice; details: route intraperitoneal
Mus musculus [30] = assay: Percent packed cell volume at 200 mg/kg per day
Mus musculus [31] = assay: Percent packed cell volume at 200 mg/kg per day per mouse
Mus musculus [32] = assay: Percent inhibition of Ehrlich ascites carcinoma growth at 200 mg/kg per day
Mus musculus [33] = assay: Effect of compound on Ehrlich ascites carcinoma growth in CF1 mice at 200 mg/kg per day ip survival at day 9; 6/6; details: route intraperitoneal

SMILES | Days (Mus musculus [1]) | Volume (Mus musculus [2]) | % (Mus musculus [3]) | Survivors at day 9 (Mus musculus [5]) | inhibition in vivo at 10 mg/kg/day (Mus musculus [6]) [%] | Survivors at day 9 (Mus musculus [7]) | further results
O=C1C(CCl)=C(CCl)C(=O)c2ccccc21 | 12.2 | 0.31 | 5 | 8 | 98.8 | – | T/C (Mus musculus [4]): 128
O=C1C(CN(CCCl)CCCl)=CS(=O)(=O)c2ccccc21 | – | 0.01 | 2 | – | 99.9 | 6 | –
CCC(=O)OCC1=CS(=O)(=O)c2ccccc2C1=O | – | 0.23 | 0.07 | – | 99.5 | 6 | –
O=C(OCC1=CS(=O)(=O)c2ccccc2C1=O)c1ccccc1 | – | 2.7 | 33.7 | 8 | 0 | – | –
O=C1C(COC(=O)N(C(=O)Nc2ccccc2)c2ccccc2)=CS(=O)(=O)c2ccccc21 | – | 0.58 | 38 | – | 69.3 | 6 | –
O=C1c2ccccc2S(=O)(=O)CC1CCl (centres undefined) | – | 1.84 | 43.5 | 8 | 36.3 | – | T/C (Mus musculus [8]): 105; Days (Mus musculus [9]): 10
O=C1C(CNc2ccccc2)=CS(=O)(=O)c2ccccc21 | – | 2.8 | 40.2 | 8 | 0 | – | –
O=C1C(Br)=C(c2ccccc2)S(=O)(=O)c2ccccc21 | 11.4 | 4.06 | 30.6 | 8 | 0.4 | – | T/C (Mus musculus [10]): 120
COCCOCC1=CS(=O)(=O)c2ccccc2C1=O | – | 0.07 | 8.2 | – | 98.2 | 6 | –
O=C1C(CO)=CS(=O)(=O)c2ccccc21 | – | 0.4 | 0.7 | – | 99.3 | – | Survivors at day 9 (Mus musculus [11]): 5; Survivors at day 9 (Mus musculus [12]): 3; Inhibition (Mus musculus [13]): 95.6%; Volume (Mus musculus [14]): 0.07; % (Mus musculus [15]): 4.8
CC(C)OCC1=CS(=O)(=O)c2ccccc2C1=O | 11.6 | 0.28 | 3.19 | – | 99.2 | 6 | T/C (Mus musculus [4]): 122
O=C1C(CBr)=CS(=O)(=O)c2ccccc21 | 10 | 0.35 | 8.63 | 8 | 92.8 | – | T/C (Mus musculus [4]): 105
O=C1C(CI)=CS(=O)(=O)c2ccccc21 | – | 0.15 | 9.57 | – | 98 | 6 | –
CCCOCC1=CS(=O)(=O)c2ccccc2C1=O | – | 0.12 | 0.19 | – | 99.9 | 6 | –
CCNC(=O)OCC1=CS(=O)(=O)c2ccccc2C1=O | – | 0.38 | 1.33 | – | 99.3 | 6 | –
O=c1cc[s+]([O-])c2ccccc12 (centres undefined) | – | 0.27 | 27.8 | – | 89.6 | 6 | –
O=COCC1=CS(=O)(=O)c2ccccc2C1=O | – | 0.57 | 4.23 | – | 91.6 | 6 | –
COCC1=CS(=O)(=O)c2ccccc2C1=O | 12 | 0.1 | 0.1 | 8 | 99.9 | – | T/C (Mus musculus [4]): 126
CC(=O)OCC1=CS(=O)(=O)c2ccccc2C1=O | 6.6 | 0.33 | 2 | 8 | 99.5 | – | Days (Mus musculus [16]): 11.6; T/C (Mus musculus [17]): 107; Days (Mus musculus [18]): 11.3; T/C (Mus musculus [19]): 122; T/C (Mus musculus [20]): 118; T/C (Mus musculus [4]): 69; Days (Mus musculus [21]): 10.2
CCOCC1=CS(=O)(=O)c2ccccc2C1=O | 12.2 | 0.54 | 17.8 | 8 | 92.4 | – | Days (Mus musculus [16]): 10.4; T/C (Mus musculus [8]): 101; T/C (Mus musculus [22]): 109; Days (Mus musculus [9]): 9.6; T/C (Mus musculus [23]): 128
O=C1C(COCCCl)=CS(=O)(=O)c2ccccc21 | – | 0.07 | 7.93 | – | 98.1 | 6 | –
O=C1C(CN2CCOCC2)=CS(=O)(=O)c2ccccc21 | – | 1.25 | 43.3 | 8 | 0 | – | –
O=C1C(COCCBr)=CS(=O)(=O)c2ccccc21 | – | 0.05 | 0 | 8 | 100 | – | –
CC1=C(Br)C(=O)c2ccccc2S1(=O)=O | – | 2.82 | 34.3 | 8 | 22.8 | – | T/C (Mus musculus [8]): 107; Days (Mus musculus [9]): 10.2
O=C1C=CS(=O)(=O)c2ccccc21 | 11.4 | 2.78 | 42.6 | 8 | 5.5 | – | T/C (Mus musculus [4]): 120
O=C1C(Br)=CS(=O)(=O)c2ccccc21 | 12.4 | 0.99 | 38.3 | 8 | 69.9 | – | Days (Mus musculus [24]): 9.4; T/C (Mus musculus [10]): 130; T/C (Mus musculus [25]): 99
O=C1C(CBr)=C(CBr)S(=O)(=O)c2ccccc21 | 10.3 | 0.76 | 37.2 | 8 | 53.9 | – | % (Mus musculus [26]): 25.2; Inhibition (Mus musculus [26]): 69.9%; Volume (Mus musculus [27]): 0.99; T/C (Mus musculus [4]): 108; Survivors at day 9 (Mus musculus [28]): 8
Cc1sc2ccccc2c(=O)c1CBr | 11.4 | 2.1 | 42.7 | 8 | 25.8 | – | T/C (Mus musculus [4]): 120
O=c1[nH]cc(F)c(=O)[nH]1 [FLUOROURACIL] | – | – | – | – | – | – | Days (Mus musculus [29]): 17.6; T/C (Mus musculus [19]): 186
Sc1ncnc2nc[nH]c12 [MERCAPTOPURINE ANHYDROUS] | – | – | – | – | – | – | % (Mus musculus [30]): 0.3; Volume (Mus musculus [31]): 0.7; inhibition in vivo at 200 mg/kg/day (Mus musculus [32]): 99.6%; Survivors at day 9 (Mus musculus [33]): 6
